Our source for the IC50 values is patent US9062071B2, “Substituted piperidines as HDM2 inhibitors” (Merck Sharp & Dohme Corp, priority 2011, dated 2015).

Molecules are shown by their SMILES.

Sequence of HDM2 protein (Q00987 whole entry): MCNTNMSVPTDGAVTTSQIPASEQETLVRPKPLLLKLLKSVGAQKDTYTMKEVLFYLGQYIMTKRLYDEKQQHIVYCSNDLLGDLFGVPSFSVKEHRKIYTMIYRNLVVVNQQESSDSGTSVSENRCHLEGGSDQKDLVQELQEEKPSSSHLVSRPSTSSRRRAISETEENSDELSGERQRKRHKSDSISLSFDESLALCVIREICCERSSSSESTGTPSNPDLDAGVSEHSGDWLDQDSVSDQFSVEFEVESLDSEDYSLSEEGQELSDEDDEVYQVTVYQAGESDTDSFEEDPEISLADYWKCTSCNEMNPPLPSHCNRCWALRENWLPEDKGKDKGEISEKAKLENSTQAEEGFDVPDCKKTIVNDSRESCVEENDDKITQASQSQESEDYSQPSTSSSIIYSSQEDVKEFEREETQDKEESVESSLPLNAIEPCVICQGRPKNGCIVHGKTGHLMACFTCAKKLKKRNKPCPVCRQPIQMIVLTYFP

The assay has as its target HDM2 protein (Homo sapiens, UniProt Q00987). Briefly: fluorescence polarization screening assay (FP IC50). Type of assay: binding. Particulars: class symbols. The method, then:
The compounds were evaluated to determine activity at the HDM2 protein by known methods such as the fluorescence polarization screening assay that measures the inhibitory concentration that achieves 50% of maximal activity (FP IC50) and the dissociation constant for inhibitor binding (FP Ki). [Zhang et al., J. Analytical Biochemistry 331: 138-146 (2004)].
Take `CCC[C@H]1N(C(=O)c2ncccc2C(F)(F)F)CCC[C@@]1(Oc1csc(C(F)(F)F)c1)C(=O)N1Cc2ccc(Cl)cc2C[C@@H]1CCC(=O)NC` [Compound A136, 3-[(3S)-6-chloro-2-{[(2R,3S)-2-propyl-1-{[3-(trifluoromethyl)pyridin-2-yl]carbonyl}-3-{[5-(trifluoromethyl)thiophen-3-yl]oxy}piperidin-3-yl]carbonyl}-1,2,3,4-tetrahydroisoquinolin-3-yl]-N-methylpropanamide]: the IC50 was in the range of 1 to 100 nM. Regarding `CCC[C@H]1N(C(=O)c2ncccc2C(F)(F)F)CCC[C@@]1(Oc1csc(C(F)(F)F)c1)C(=O)N1Cc2ccc(Cl)cc2C[C@@H]1C[C@H](C)C(=O)O` [Compound A137, (2S)-3-[(3S)-6-chloro-2-{[(2R,3S)-2-propyl-1-{[3-(trifluoromethyl)pyridin-2-yl]carbonyl}-3-{[5-(trifluoromethyl)thiophen-3-yl]oxy}piperidin-3-yl]carbonyl}-1,2,3,4-tetrahydroisoquinolin-3-yl]-2-methylpropanoic acid], the IC50 fell in the range of 1 to 100 nM. The compound `CCC[C@H]1N(C(=O)c2ncccc2C(F)(F)F)CCC[C@@]1(Oc1csc(C(F)(F)F)c1)C(=O)N1CCc2ccc(F)cc2C1` [Compound A138, 7-fluoro-2-{[(2R,3S)-2-propyl-1-{[3-(trifluoromethyl)pyridin-2-yl]carbonyl}-3-{[5-(trifluoromethyl)thiophen-3-yl]oxy}piperidin-3-yl]carbonyl}-1,2,3,4-tetrahydroisoquinoline] showed an IC50 of 101 to 20000 nM. The compound `CCC[C@H]1N(C(=O)c2ncccc2C(F)(F)F)CCC[C@@]1(Oc1csc(C(F)(F)F)c1)C(=O)N1CCc2ccc(Cl)cc2C1` [Compound A139, 7-chloro-2-{[(2R,3S)-2-propyl-1-{[3-(trifluoromethyl)pyridin-2-yl]carbonyl}-3-{[5-(trifluoromethyl)thiophen-3-yl]oxy}piperidin-3-yl]carbonyl}-1,2,3,4-tetrahydroisoquinoline] registered an IC50 of 101 to 20000 nM.

Regarding `CCC[C@H]1N(C(=O)c2ncccc2C(F)(F)F)CCC[C@@]1(Oc1csc(C(F)(F)F)c1)C(=O)N1CCc2ccc(OC)cc2C1` [Compound A140, 7-methoxy-2-{[(2R,3S)-2-propyl-1-{[3-(trifluoromethyl)pyridin-2-yl]carbonyl}-3-{[5-(trifluoromethyl)thiophen-3-yl]oxy}piperidin-3-yl]carbonyl}-1,2,3,4-tetrahydroisoquinoline], the IC50 is 101 to 20000 nM. Compound `CCC[C@H]1N(C(=O)c2ncccc2C(F)(F)F)CCC[C@@]1(Oc1csc(C(F)(F)F)c1)C(=O)N1Cc2ccc(Cl)cc2C[C@@H]1CCCF` [Compound A141, (3S)-6-chloro-3-(3-fluoropropyl)-2-{[(2R,3S)-2-propyl-1-{[3-(trifluoromethyl)pyridin-2-yl]carbonyl}-3-{[5-(trifluoromethyl)thiophen-3-yl]oxy}piperidin-3-yl]carbonyl}-1,2,3,4-tetrahydroisoquinoline] had an IC50 of 101 to 20000 nM. Compound `CCC[C@H]1N(C(=O)c2ncccc2C(F)(F)F)CCC[C@@]1(Oc1csc(C(F)(F)F)c1)C(=O)N1CCc2ccc(Br)cc2C1` [Compound A142, 7-bromo-2-{[(2R,3S)-2-propyl-1-{[3-(trifluoromethyl)pyridin-2-yl]carbonyl}-3-{[5-(trifluoromethyl)thiophen-3-yl]oxy}piperidin-3-yl]carbonyl}-1,2,3,4-tetrahydroisoquinoline] showed an IC50 of 101 to 20000 nM. For the compound `CCC[C@H]1N(C(=O)c2ncccc2C(F)(F)F)CCC[C@@]1(Oc1csc(C(F)(F)F)c1)C(=O)N1Cc2ccc(Cl)cc2C[C@H]1CCC(=O)O` [Compound A143, 3-[(3R)-6-chloro-2-{[(2R,3S)-2-propyl-1-{[3-(trifluoromethyl)pyridin-2-yl]carbonyl}-3-{[5-(trifluoromethyl)thiophen-3-yl]oxy}piperidin-3-yl]carbonyl}-1,2,3,4-tetrahydroisoquinolin-3-yl]propanoic acid], the IC50 fell in the range of 1 to 100 nM. The same measure for `CCC[C@H]1N(C(=O)c2ncccc2C(F)(F)F)CCC[C@@]1(Oc1csc(C(F)(F)F)c1)C(=O)N1Cc2ccc(F)cc2C[C@@H]1CC(=O)O` [Compound A144, [(3R)-6-fluoro-2-{[(2R,3S)-2-propyl-1-{[3-(trifluoromethyl)pyridin-2-yl]carbonyl}-3-{[5-(trifluoromethyl)thiophen-3-yl]oxy}piperidin-3-yl]carbonyl}-1,2,3,4-tetrahydroisoquinolin-3-yl]acetic acid]: 1 to 100 nM. On to `CCC[C@H]1N(C(=O)c2ncccc2C(F)(F)F)CCC[C@@]1(Oc1csc(C(F)(F)F)c1)C(=O)N1Cc2ccc(Cl)cc2C[C@@H]1CCC(=O)NO` [Compound A145, 3-[(3S)-6-chloro-2-{[(2R,3S)-2-propyl-1-{[3-(trifluoromethyl)pyridin-2-yl]carbonyl}-3-{[5-(trifluoromethyl)thiophen-3-yl]oxy}piperidin-3-yl]carbonyl}-1,2,3,4-tetrahydroisoquinolin-3-yl]-N-hydroxypropanamide], for which the IC50 lay in the range of 1 to 100 nM. In turn, `CCC[C@H]1N(C(=O)c2ncccc2C(F)(F)F)CCC[C@@]1(Oc1csc(C(F)(F)F)c1)C(=O)N1Cc2ccc(F)cc2C[C@@H]1CCCC(=O)O` [Compound A146, 4-[(3S)-6-fluoro-2-{[(2R,3S)-2-propyl-1-{[3-(trifluoromethyl)pyridin-2-yl]carbonyl}-3-{[5-(trifluoromethyl)thiophen-3-yl]oxy}piperidin-3-yl]carbonyl}-1,2,3,4-tetrahydroisoquinolin-3-yl]butanoic acid] yielded an IC50 of 1 to 100 nM. With `CCC[C@H]1N(C(=O)c2ncccc2C(F)(F)F)CCC[C@@]1(Oc1csc(C(F)(F)F)c1)C(=O)N1Cc2cc(F)ccc2C[C@H]1CCC(=O)O` [Compound A147, 3-[(3R)-7-fluoro-2-{[(2R,3S)-2-propyl-1-{[3-(trifluoromethyl)pyridin-2-yl]carbonyl}-3-{[5-(trifluoromethyl)thiophen-3-yl]oxy}piperidin-3-yl]carbonyl}-1,2,3,4-tetrahydroisoquinolin-3-yl]propanoic acid], the half-maximal inhibitory concentration (IC50) was 1 to 100 nM.

For the compound `CCC[C@H]1N(C(=O)c2ncccc2C(F)(F)F)CCC[C@@]1(Oc1csc(C(F)(F)F)c1)C(=O)N1Cc2ccc(Cl)cc2C[C@@H]1CCC(=O)NS(C)(=O)=O` [Compound A148, 3-[(3S)-6-chloro-2-{[(2R,3S)-2-propyl-1-{[3-(trifluoromethyl)pyridin-2-yl]carbonyl}-3-{[5-(trifluoromethyl)thiophen-3-yl]oxy}piperidin-3-yl]carbonyl}-1,2,3,4-tetrahydroisoquinolin-3-yl]-N-(methylsulfonyl) propanamide], the IC50 fell in the range of 1 to 100 nM. The same measure for `CCC[C@H]1N(C(=O)c2ncccc2C(F)(F)F)CCC[C@@]1(Oc1csc(C(F)(F)F)c1)C(=O)N1Cc2ccc(F)cc2C[C@@H]1C(=O)N1CCC(O)CC1` [Compound A149, 1-{[(3R)-6-fluoro-2-{[(2R,3S)-2-propyl-1-{[3-(trifluoromethyl)pyridin-2-yl]carbonyl}-3-{[5-(trifluoromethyl)thiophen-3-yl]oxy}piperidin-3-yl]carbonyl}-1,2,3,4-tetrahydroisoquinolin-3-yl]carbonyl}piperidin-4-ol]: 1 to 100 nM.
